Like-named read-outs stand apart in the source and are kept apart here.
Key:
[1] = target: T1, aggregated Aβ42 peptides (Homo sapiens, UniProt P05067); experiment: Apparent binding constant (Kd) of probes 27-31, 33 by fluorescence intensity vs concentration; conditions: probe 1.25, 2.5, 5.0, 10 μM in nano-pure water, 5 μM pre-aggregated Aβ42
T1 construct: preaggregated Aβ(1-42) peptides
Protocol: We also measured the apparent binding constants (Kd) of the probes to aggregated Aβ42 peptides. The fluorescent intensity of each probe was measured in concentrations of 1.25, 2.5, 5.0 and 10 μM in nano-pure water, mixed with 5 μM of the pre-aggregated Aβ42 peptides. Zhao, X.; Yang, J., ACS Chem. Neurosc. 1, (10), 655-660. […] On the other hand, a decrease of the Kd value was observed upon chemically altering the electron donor of the ANCA scaffold. […] FIGS. 10A-F show plots of the fluorescence intensity (at λ=525 nm) of compounds 27-31 and […], respectively, as a function of the concentration in the presence of aggregated Aβ42 peptides (5 μM) in solution.

[2] = target: T2, aggregated Aβ(1-42) peptides (Homo sapiens, UniProt P05067); experiment: Fluorescence of probes 27-31, 33 before and after mixing with aggregated Aβ42; type: binding; conditions: 4 μM probe; for Em. max (nm) after / Exc. max (nm) after / Fold increase (emission intensity after binding): 5 μM aggregated Aβ(1-42); for Em. max (nm) before / Exc. max (nm) before: nano-pure water (5% DMSO), without Aβ
T2 construct: preaggregated Aβ(1-42) peptides
T2 sequence (P05067 672-713 limits assumed): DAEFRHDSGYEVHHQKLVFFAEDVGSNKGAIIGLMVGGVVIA
Protocol: Aggregated Aβ peptide was prepared by dissolving Aβ(1-42) in PBS pH 7.4 to a final concentration of 100 μM. This solution was magnetically stirred at 1200 rpm for 3 days at room temperature. The 100 μM Aβ(1-42) stock solution in PBS was aliquoted and frozen at −10° C. for up to 4 weeks without noticeable change in its property. 15 μL of the pre-aggregated Aβ(1-42) was added to 285 μL of the probe (5% DMSO in nano-pure water) to attain a final concentration of 5 μM Aβ(1-42) and 4 μM of the probe. The solution was transferred to a […] cuvette and the fluorescent measured. FIGS. 9A-F show fluorescence excitation spectra of Cmpds 27-31 and 33, respectively.
LeVine III, H., Protein Sci. 1993, 2, (3), 404-410. Along these lines, we compared the fluorescent properties of 27-31 or 33 in aqueous solution with or without the presence of aggregated Aβ42 peptides. Specifically, we measured the fluorescent properties of each dye at 4 μM concentration in nano pure water, before and after mixing with aggregated Aβ42 peptide (final concentration peptide=5 μM). As it is shown in table 5, in all cases we observed a significant increase (3 to 9-fold) in the intensity of the emission spectra of the probes upon association with the aggregated amyloid peptides. This intensity increase was also accompanied with a blue shift in the emission spectra of around 5-50 nm. […] FIG. 9C provides a representative example of the fluorescent properties of compound 29.

[3] = test system: amyloid plaques in human tissue from AD cases; experiment: Fluorescence imaging of amyloid plaques in tissue sections; conditions: frozen AD tissue sections, probe solution 30 min, washed with water
Protocol: FIGS. 11A-F depict fluorescence images of amyloid plaques in human tissue from AD cases. After the frozen tissue was sectioned and mounted to a glass slide, the tissue was exposed to a solution containing a fluorescent probe for 30 min. The sample was washed with water to eliminate non-specific staining of the tissue, and imaged using an inverted epi-fluorescence microscope. The images reveal the location of plaques that were stained with A) compound 27, B) compound 28, C) compound 29, D) compound 30, E) compound 31, or F) compound 33.

T1 sequence (P05067 672-713 limits assumed): as above

Row | SMILES | Kd [1] | Kd ([1]; read-out: Kd) [µM] | Em. max (nm) after [2] [nm] | Exc. max (nm) after [2] [nm] | Fold increase (emission intensity after binding) [2] [fold] | Em. max (nm) before [2] [nm] | Exc. max (nm) before [2] [nm] | Staining of amyloid plaques (fluorescence image) [3]
1 | COCCOCCOCCOC(=O)/C(C#N)=C/c1ccc2cc(N3CCCCC3)ccc2c1 [Compound 27, (E)-2-(2-(2-methoxyethoxyl)ethoxy)ethyl 2-cyano-3-(2-(piperidin-1-yl)napthalen-6-yl)acrylate] | highest affinity | 1.4 | – | – | – | – | – | –
2 | COCCOCCOCCOC(=O)/C(C#N)=C/c1ccc2cc(N3CCN(C)CC3)ccc2c1 [Compound 28, (E)-2-(2-(2-methoxyethoxyl)ethoxy)ethyl 2-cyano-3-(2-(4-methylpiperazin-1-yl)napthalen-6-yl) acrylate] | – | 4.6 | 530 | 385 | 4.9 | 580 | 400 | stained
3 | COCCOCCOCCOC(=O)/C(C#N)=C/c1ccc2cc(N3CCOCC3)ccc2c1 [Compound 29, (E)-2-(2-(2-methoxyethoxyl)ethoxy)ethyl 2-cyano-3-(2-morpholinonapthalen-6-yl)acrylate] | – | 13.8 | 525 | 380 | 5.1 | 530 | 400 | stained
4 | COCCOCCOCCOC(=O)/C(C#N)=C/c1ccc2cc(NCCN3CCOCC3)ccc2c1 [Compound 30, (E)-2-(2-(2-methoxyethoxyl)ethoxy)ethyl 3-(2-(2-morpholinoethylamino)naphthalen-6-yl)-2-cyano acrylate] | – | 6.7 | 540 | 430 | 2.9 | 570 | 430 | stained
5 | COCCOCCOCCOCCOC(=O)/C(C#N)=C/c1ccc2cc(N3CCCCC3)ccc2c1 [Compound 31, (E)-2-(2-(2-(2-methoxyethoxyl)ethoxy)ethoxy)ethyl 2-cyano-3-(2-(piperidin-1-yl)napthalen-6-yl) acrylate] | highest affinity | 1.6 | – | – | – | – | – | –
6 | N#C/C(=C\c1ccc2cc(N3CCCCC3)ccc2c1)C(=O)OCC(O)CO (stereo not drawn) [Compound 33, (E)-2,3-dihydroxypropyl 2-cyano-3-(2-(piperidin-1-yl)naphthalene-6-yl)acrylate] | highest affinity | 1.6 | 535 | 410 | 7.2 | 540 | 410 | stained

From US9551722B2, “Amyloid binding agents” (The Regents of the University of California, priority 2009, dated 2017)
